The record followed here is patent US12121521B2, “Uses of salt-inducible kinase (SIK) inhibitors for treating osteoporosis” (The General Hospital Corporation, priority 2016, dated 2024).

Format in all cases: cell-based, mouse
The subject of assay [1] is Ocy454 cells. As to the kind of experiment: Immunoblotting of Ocy454 cell lysates (HDAC4/5, CRTC2, SIK2 phosphorylation and localisation).
Assay [2] has as its system Ocy454 cells. The assay can be described thus: Gene expression in Ocy454 cells by RT-qPCR. As to conditions: 0.5 μM, 3.5 hours; FIG. 21. On the procedure: In FIG. 21, Ocy454 cells (osteocyte cell line, also known at 6-9 cells) were cultured at 37° C. for 2 weeks to permit osteocyte differentiation. The cells were then treated with the indicated compound (0.5 μM) for 3.5 hours, and gene expression was analyzed by RT-qPCR. SOST expression was reduced by the indicated compounds. RANKL expression was increased by the indicated compounds. […] Therefore, these changes in gene expression may be due to on-target effects of the indicated compound.
(§1) For all experiments, a single cell subclone of Ocy454 cells (17, 18) was used. Cells were passages in alpha-MEM supplemented with 10% heat-inactivated fetal bovine serum and 1% antibiotics (penicillin/streptomycin, Fungizone) at 33° C. with 5% CO2. Cells were plated at 50,000 cells/ml and allowed to reach confluency at 33° C. (typically in 2-3 days). At this point, cells were transferred to 37° C. for subsequent analysis. For immunoblotting, cells were always analyzed after culture at 37° C. for 7 days. For gene expression analysis, cells were analyzed after culture at 37° C. for 14 days. Mycoplasma contamination was ruled out by PCR. Cells were routinely assayed for SOST expression at 37° C. and examined for osteocytic morphology.
Total RNA was extracted from cultured cells using RNeasy (Qiagen, Venlo, Netherlands) following the manufacturer's instructions. For long bone RNA isolation, mice were sacrificed and both femurs were rapidly dissected on ice. Soft tissue was removed and epiphyses cut. Bone marrow cells were then removed by serial flushing with ice-cold PBS. TRIzol (Life Technologies) was added and sampled were frozen at −80C and then homogenized. RNA was then extracted per the manufacturer's instructions, and further purified on RNeasy microcolumns prior to cDNA synthesis. RNA with A260/280 ratio <1.7 was not used for downstream analysis. For cDNA synthesis, 1 μg RNA was used in synthesis reactions according to the instructions of the manufacturer (Primescript RT, Takara). SYBR Green-based qPCR detection was performed using FastStart Universal SYBR Green (Roche, Basel, Switzerland) on a StepOne Plus (Applied Biosystems, Carlsbad, CA) thermocycler.

In assay [3] the test system is Ocy454 cells. As to the kind of experiment: cAMP radioimmunoassay. As to conditions: 20 minutes; FIG. 14B. The protocol: Cells, in 96 well plates, were treated with indicated ligands for 20 minutes at room temperature in the presence of the phosphodiesterase inhibitor 3-isobutyl-1-methylxanthine (IBMX, Sigma I5879, 2 mM). The medium was then removed and cells were lysed in 50 mM HCl and transferred to −80C. Thawed lysates were diluted 1:5 with dH2O, and an 10 μl aliquot was assessed for cAMP content by radioimmunoassay using ^125I-cAMP analog as a tracer and unlabeled cAMP to generate a standard curve.

Assay [4] concerns Ocy454 cells. As to the kind of experiment: Gene expression in Ocy454 cells by RT-qPCR. As to conditions: FIG. 5E.
The subject of assay [5] is Ocy454 cells. The assay can be described thus: Immunoblotting of Ocy454 cell lysates (HDAC4/5, CRTC2, SIK2 phosphorylation and localisation). As to conditions: 10 uM, 90 minutes, compared to DMSO control; FIGS. 17 to 19. On the procedure:
The Ocy454 osteocyte cell line was treated for 90 minutes with the indicated compound at 10 uM dose (FIG. 17). Phospho-HDAC4 S246 levels were monitored by immunoblotting (top band) compared to DMSO control.
as §1, with “morphology. […]” for “morphology.”

Take `COc1ccc(N2C(=O)N(c3c(C)cccc3C)Cc3cnc(Nc4ccc(N5CCN(C)CC5)c(OC)c4)nc32)c(OC)c1` [YKL-04-114]: the “dose of optimal efficacy at the level of HDAC4/5 dephosphorylation” value in assay [1] (60 minutes, FIG. 5C) was approximately 1 µM. In addition, the HDAC4/5 phosphorylation result in assay [1] (FIGS. 5B and 5C) is given as “rapid, dose-dependent decreases in HDAC4/5 phosphorylation”. Further, in assay [2], the RANKL expression result is “most active in these experiments at reducing SOST and increasing RANKL”; the SOST expression entry was “most active in these experiments at reducing SOST”. The cAMP levels entry in assay [3] is recorded as “without increasing cAMP levels”. For the same compound, in assay [4] (4 hours), the “dose of optimal efficacy at the level of gene expression” value is approximately 0.5 µM. In assay [4], the RANKL expression result is recorded as “RANKL up-regulation”; the SOST expression entry is “rapid and potent SOST suppression”. The “Phospho-HDAC4 S246 levels” value in assay [5] is recorded as “showed the most clear results across multiple replicates”.

As to `C=C1[C@@H](O)[C@@H]2O[C@]3(CC[C@H](/C=C/[C@@H](C)[C@@H]4CC(C)=C[C@@]5(O[C@H](C[C@@](C)(O)C(=O)O)CC[C@H]5O)O4)O3)CC[C@H]2O[C@@H]1[C@@H](O)C[C@H](C)[C@H]1O[C@@]2(CCCCO2)CC[C@H]1C` [okadaic acid, reference compound], the “block of PTH-mediated decreased HDAC4/5 phosphorylation or SOST suppression” value in assay [1] (okadaic acid 300 nM plus PTH, FIGS. 13B and 13C) was “did not block PTH-mediated decreased HDAC4/5 phosphorylation or SOST suppression”.
